Reference: patent US7696174B2, “Short bio-active peptides for cellular and immunological modulation” (Helix Biomedix, Inc., priority 2007, dated 2010)
“Also recorded” adds a separate entry of the source. Where two headings read alike, the source gives them in different places.

Assays:
[1] = system: IL6 expression in epithelial cells; assay: Repression of IL6 expression in resting epithelial cells; type: cell-based; conditions: for % Change in IL6 expression / Change in IL6 versus PBS control: 20 μg/mL peptide
Source text: The protocol for this assay is standard and described by Murakami et al. (2004, J. Immunol. 172:[…]), the article of which is incorporated herein by reference in its entirety.

[2] = system: PAM 212 murine epidermal keratinocyte; assay: Cell proliferation assay, PAM 212 murine epidermal keratinocytes; type: cell-based; conditions: for cell proliferation as a percent of control cell proliferation: control = cells treated with PBS only; for cell proliferation activity (in words): epidermal keratinocytes
Experimental: To examine this question, an overlapping set of peptide fragments of HB-107 was generated using standard solid phase peptide chemistry. These peptides were then assayed for cell proliferation activity at concentrations of 0.22, 2.15, 21.5 and 46.4 μg/mL.
The cell proliferation assays proceeded from the following experimental protocol:
Cell Proliferation Assay Using a Mouse Keratinocyte Cell Line.
OBJECTIVE: To determine the anti-proliferative or cytotoxic potential of a test article when applied to epidermal keratinocytes in culture.
TEST SYSTEM: Either the murine keratinocyte cell line PAM212 or primary Normal Human Epidermal Keratinocytes (NHEK, from Clonetics) are preferred models, although other cells may be used.
Keratinocytes are examined microscopically daily. As the culture becomes 50-75% confluent, the media in the plate is aspirated and 0.25% trypsin/EDTA is added (0.05% trypsin for human cells). When the cells become rounded, the trypsin is neutralized by addition of an equal volume of DMEM or KBM supplemented with approximately 10% bovine serum or by using trypsin neutralizing solution (TNS, from Clonetics). Cells are then centrifuged and the pellet is resuspended in 1 ml of DMEM-1 or KBM. A hemacytometer is used to count the cell suspension and the total number of cells/mL is adjusted to 1.5-2.5×10^4 cells/mL with DMEM-1 or KBM. Cells are then plated in 96-well plates at a concentration of 3.0-5.0×10^3 cells/well by adding 200 μL of the cell suspension to each well. Typically, the central 60 wells are used and the outer wells are filled with DMEM or PBS to minimize evaporation effects.
A stock solution of the test article is prepared using DMEM-1 or KBM, and all other dilutions are henceforth prepared from this solution. Typically, each dilution is filtered through an 0.2-μm filter before application to the cell culture. A 1.0% (w/v or v/v) solution or suspension is prepared, and 10-fold or 3-fold serial dilutions are made in culture medium.
The cells are examined 18-24 hours after plating to ensure cell attachment and division, and then 100 μL of the media is aspirated, leaving behind 100 μL in each well. Then 100 μL of a 2× concentration of each test article dilution is added to the replicate wells. For the negative control, 100 μL of the vehicle media (DMEM-1 or KBM) is added to the control wells. The microplate is then incubated at 37 degrees C. and 5.0% CO2 for 48-72 hours after dosing, and cells are allowed to proliferate undisturbed. Following this 48-72 hour exposure, all media is aspirated and proliferation is assessed by one of the below methods.
Option A: neutral red uptake. After exposure and aspiration of media, 200 μL of neutral red media is immediately added to each well. The microplate is returned to the incubator for an additional three hours. Following this dye uptake period, the microplate is removed from the incubator and gently inverted, and the neutral red media is decanted into a collection pan. The cells are then fixed with fixing solution for approximately one minute. The fixing solution is decanted off, and the microplate is washed gently three times with washing solution. The washing solution is decanted, and 200 μL of lysing solution is added. After at least 15 minutes, the contents of each well are re-pipetted to ensure even color distribution in each well, and an aliquot is read on the spectrophotometer as detailed below.
Option B: MTT conversion assay. After exposure and aspiration of media, 200 μL of MTT assay media is immediately added to each well. […] The microplate is returned to the incubator for an additional three hours. Following this dye uptake period, the microplate is removed from the incubator and gently inverted, and the MTT media is decanted into a collection pan. The cells are then washed gently three times with washing solution. The washing solution is decanted, and 200 μL of lysing solution is added. […]

[3] = system: UVB-induced IL6 expression in human skin epithelial cells (ATCC CRL-2592); assay: UVB-induced IL6 expression in skin epithelial cells (ELISA); type: cell-based; conditions: for IL6 (OD 450): UVB 35 seconds, then 40 μg/mL peptide for twenty hours, UV only 0.7305, control 0.0730
Experimental: FIG. 3: Effect of short peptides on UVB-induced IL6 expression in skin epithelial cells. Cells were exposed to UVB irradiation for 35 seconds, after which cells were incubated in complete medium (no serum) with 40 μg/mL peptide [HB-107 (SEQ ID NO:1), HB-802 (SEQ ID NO:12), HB-1410 (SEQ ID NO:15), HB-801 (SEQ ID NO:31)] for twenty hours. IL6 expression was then measured by ELISA. Refer to Example 4.
An assay was performed to determine whether peptide fragments of HB-107 can induce anti-inflammatory activity in cells exposed to ultraviolet light. Human skin epithelial cells (ATCC CRL-2592) were seeded into 6-well plates and grown to more than 95% confluence in DMEM with 4 mM L-glutamine adjusted to contain 1.5 g/L sodium bicarbonate and 4.5 g/L glucose (complete medium) supplemented with 10% fetal bovine serum. The cells were serum starved for 5 hours prior to UVB treatment. UVB was generated using a UVLMS lamp (4W model, 3UV assembly, Upland, Calif.) with the irradiation wavelength set at 302 nm. The UV lamp was placed 12 cm above the tissue culture plate (6-well plate) and two wells were treated at one time to allow homogenous UVB irradiation. Cells were exposed to UVB irradiation (450 μW/cm^2, measured using a radiometer) in PBS to avoid ultraviolet light-induced generation of toxic photochemicals. IL6 expression was measured as an indicator of cell inflammatory activity in response to UVB.
Individual peptides were screened to determine the effects thereof on UVB-induced IL6 expression in skin epithelial cells. Cells were exposed to UVB (450 μW/cm^2) for 35 seconds in PBS, after which the PBS was replaced with complete medium without serum in the presence or absence of 40 μg/ml peptide and incubated at 37 degrees C./5% CO2 for twenty hours. The supernatant media was then collected and centrifuged at 10,000 rpm to remove debris, prior to ELISA for human IL6 (CellSciences, Mass.).

[4] = system: human epidermal keratinocyte; assay: Keratinocyte cell migration assay (tissue culture scratch test); type: cell-based
Source text: Cell proliferation alone is not sufficient to aid in wound healing. Upon sustaining an injury, cells bordering the wound proliferate; the migration of such newly formed cells to close the injury (or chronic lesion of older, dysfunctional tissue) is of equal importance. To address this issue, HB-107 and peptide fragments thereof were examined using a keratinocyte cell migration assay based on a simple tissue culture scratch test. […] The protocol for this assay is standard and has been described by Shanley et al. (2004, Invest. Ophthalmol. Vis. Sci. 45:1088-1094), the article of which is herein incorporated by reference in its entirety.

[5] = compared with cecropin B; cited from earlier work
[6] = Lee et al., 2004; cited from earlier work
[7] = 24 hr after addition of 20 μg/mL peptide
[8] = 48 hr after addition of 20 μg/mL peptide

In the case of “MPKEK (listed as Hyalophora cecropia) [HB-802, fragment of HB-107]”, the “IL6 reduction / anti-inflammatory activity in resting cells (in words)” value [1] is reported as “decrease the level of IL6 expression to the same degree as the HB-107 parent peptide; also recorded: ability to reduce IL6 in resting cells”, the “amount of IL6, Average” value [1, 7] is reported as 283.485 pg/mL and the “amount of IL6, Well 1” value [1, 7] is reported as 278.32 pg/mL. The “amount of IL6, Well 2” value [1, 7] was 288.65 pg/mL, the “% Change in IL6 expression” value ([1]; 24 hr) was −12.50% and the “Change in IL6 versus PBS control” value ([1]; 24 hr) was −40.435. For the same substance, the “amount of IL6, Average” value [1, 8] was 768.045 pg/mL, the “amount of IL6, Well 1” value [1, 8] was 774.07 pg/mL and the “amount of IL6, Well 2” value [1, 8] was 762.02 pg/mL. The “% Change in IL6 expression” value ([1]; 48 hr) was −21.20%, the “Change in IL6 versus PBS control” value ([1]; 48 hr) was −206.99 and the “IL6 reduction / anti-inflammatory activity in resting cells (in words)” value ([1]; listed as SEQ ID:12) was “displays both proliferative and anti-inflammatory activities”. For the same substance, the “cell proliferation as a percent of control cell proliferation” value (“cell proliferation as a percent” below) ([2]; 0.22 μg/mL peptide) was 121%, the “cell proliferation as a percent” value ([2]; 2.15 μg/mL peptide) was 130% and the “cell proliferation as a percent” value ([2]; 21.5 μg/mL peptide) was 135%. For the same substance, the “cell proliferation as a percent” value ([2]; 46.4 μg/mL peptide) was 133%, the “cell proliferation activity (in words)” value [2] was “can induce cell proliferation” and the “IL6 (OD 450)” value [3] was 0.6500 OD 450.

In the case of “MPKEKVFLKIEKMGRNIRN (listed as Hyalophora cecropia) [HB-107, parent peptide, a fragment of cecropin B, an antimicrobial protein present in a species of moth, reference compound]”, the “percent closure of the scratch compared to initial width” value ([4]; 6 hr exposure to peptide) is reported as 52%, the “percent closure of the scratch compared to initial width” value ([4]; 10 hr exposure to peptide) is reported as 78% and the “amount of IL6, Average” value [1, 7] is reported as 286.065 pg/mL. For the same substance, the “amount of IL6, Well 1” value [1, 7] was 307.58 pg/mL, the “amount of IL6, Well 2” value [1, 7] was 264.55 pg/mL and the “% Change in IL6 expression” value ([1]; 24 hr) was −11.60%. For the same substance, the “Change in IL6 versus PBS control” value ([1]; 24 hr) was −37.435, the “amount of IL6, Average” value [1, 8] was 738.35 pg/mL and the “amount of IL6, Well 1” value [1, 8] was 690.58 pg/mL. For the same substance, the “amount of IL6, Well 2” value [1, 8] was 786.12 pg/mL, the “% Change in IL6 expression” value ([1]; 48 hr) was −24.30% and the “Change in IL6 versus PBS control” value ([1]; 48 hr) was −236.685. For the same substance, the “cell proliferation as a percent” value ([2]; 0.22 μg/mL peptide) was 57%, the “cell proliferation as a percent” value ([2]; 2.15 μg/mL peptide) was 75% and the “cell proliferation as a percent” value ([2]; 21.5 μg/mL peptide) was 121%. The “cell proliferation as a percent” value ([2]; 46.4 μg/mL peptide) was 126%, the “bacteriostatic effects (in words)” value [5] was “does not display the bacteriostatic effects” and the “IL6 (OD 450)” value [3] was 0.7315 OD 450. The “wound healing in vivo (in words)” value [6] was “does display epidermal wound healing qualities; also recorded: stimulate wound healing in vivo”.

In the case of “PKEK (listed as Hyalophora cecropia) [HB-1410, fragment of HB-107]”, the “reduction of UVB-induced IL6 / anti-inflammatory activity (in words)” value [3] is reported as “capable of significantly reducing the level of IL6”, the “IL6 (OD 450)” value [3] is reported as 0.5105 OD 450 and the “reduction of UVB-induced IL6 / anti-inflammatory activity (in words)” value ([3]; listed as SEQ ID NO:15) is reported as “having anti-inflammatory activity”.

With “PKEKV (listed as Hyalophora cecropia) [HB-801, fragment of HB-107]” the “cell proliferation as a percent” value ([2]; 0.22 μg/mL peptide) was 101%, the “cell proliferation as a percent” value ([2]; 2.15 μg/mL peptide) was 100% and the “cell proliferation as a percent” value ([2]; 21.5 μg/mL peptide) was 113%. For the same substance, the “cell proliferation as a percent” value ([2]; 46.4 μg/mL peptide) was 131%, the “cell proliferation activity (in words)” value [2] was “can induce cell proliferation” and the “IL6 (OD 450)” value [3] was 0.8275 OD 450.
